The record followed here is patent EP0282456A2, “Mylbemycin derivatives to combat parasites on animals” (CIBA-GEIGY AG, priority 1987, dated 1988).

For data set [1], the system named is Haemonchus contortus und Trichostrongylus colubriformis. In words: Test on sheep infected with nematodes (worm egg count in faeces). Type of data set: in vivo, Schaf. Particulars: single dose 0,2 mg/kg by stomach tube or intraruminal injection, compared with untreated infected controls. The procedure: Der Wirkstoff wird als Suspension formuliert mit einer Magensonde oder durch Injektion in den Pansen eines Schafes gegeben, das mit Haemonchus contortus und Trychostrongylus colubriformis künstlich infiziert worden ist. Pro Dosis werden 1 bis 3 Tiere verwendet. Jedes Schaf wird nur einmal mit einer einzigen Dosis behandelt, und zwar wahlweise mit 0,5 mg oder 0,2 mg/kg Körpergewicht. Die Evaluierung erfolgt durch Vergleich der Anzahl der vor und nach Behandlung im Kot der Schafe ausgeschiedenen Wurmeier. Gleichzeitig und gleichartig infizierte aber unbehandelte Schafe dienen als Kontrolle.

For data set [2], the system named is Li-Larven von Lucilia sericata. Put plainly: Activity against L1 larvae of Lucilia sericata (mortality in larval culture medium). Particulars: 100 ppm active substance in larval medium; about 30 L1 larvae; mortality after 4 days. The procedure:
1 ml einer wässrigen Suspension der zu prüfenden Aktivsubstanz werden so mit 3 ml eines speziellen Larvenzuchtmediums bei ca. 50° C vermischt, dass ein Homogenisat von wahlweise 250 ppm oder 100 ppm Wirkstoffgehalt entsteht. In jede Reagenzglas-Probe werden ca. 30 Lucilia-Larven (L1) eingesetzt. Nach 4 Taben wird die Mortalitätsrate bestimmt. Verbindungen der Formel I aus den Tabellen, wie z.B. die Verbindungen H4 und H5 erzielten mit 100 ppm eine Wirkung von 100%.

A further data set concerns Dermanyssus gallinae. In words: Miticidal activity against Dermanyssus gallinae. The following applies: 100 ppm test solution; about 200 mites; observed for three days. The procedure:
2 bis 3 ml einer Testlösung (100, 10, 1 und 0,1 ppm Aktivsubstanz) werden in einen nach oben offenen Glasbehälter gegeben und ca. 200 Milben in unterschiedlichen Entwicklungsstadien in diesen Behälter eingesetzt. Der Glasbehälter wird mit einem Wattebausch verschlossen und 10 Minuten gleichmässig, bis zur vollständigen Benetzung der Milben geschüttelt. Danach wird der Behälter umgekehrt hingestellt, bis die überschüssige Testlösung von der Watte aufgesogen ist. Der Behälter wird erneut gekehrt und die behandelten Milben zur Evaluierung der Wirksamkeit der Testsubstanzen drei Tage unter Laborbedingungen beobachtet, wobei die Mortalität als Massstab für Wirksamkeit herangezogen wird. Verbindungen aus den Tabellen, wie z.B. die Verbindungen H4 und H5 zeigen bei 100 ppm eine Wirkung von 1000/0.

As for 13-Vinyl-milbemycin A4 [H4], the “Nematodenbefall (Reduktion der Wurmeier im Kot)” value in data set [1] is “keinen Nematodenbefall”. The “Wirkung (Mortalitätsrate)” value in data set [2] came out at 100%. Moreover, in the data set with Dermanyssus gallinae, the “Wirkung (Mortalität)” value is 1000/0.

Regarding 13ß-Vinyl-milbemycin A4 [H5], the “Nematodenbefall (Reduktion der Wurmeier im Kot)” value in data set [1] is recorded as “keinen Nematodenbefall”. The “Wirkung (Mortalitätsrate)” value in data set [2] stood at 100%. In the data set with Dermanyssus gallinae, the “Wirkung (Mortalität)” value is reported as 1000/0.
